“Also recorded” adds a separate entry of the source.
Experiments:
PEZ = PEZ (Homo sapiens, UniProt Q15678); test: PTP panel IC50, 60-min preincubation; format: biochemical
Description: (§1) Building on the results from the SAR “by‐catalog” study, the following medicinal chemistry effort was prioritized on a systematic survey of the central phenyl scaffold, the sulfonamide linker, and the distal aryl moiety with the goal of a multiparameter optimization of potency and selectivity for SHP1 inhibition as well as drug‐like properties such as aqueous solubility and cell permeability. Additionally, given the crucial requirement for targeted covalent inhibitors to maintain tempered reactivity that enables selective target engagement and reduces cross‐reactivity to by‐standing nucleophiles in the cellular milieu,^[ [74], [75] ^] the medicinal chemistry campaign also sought to lower SHP1 covalent inhibitor reactivity with GSH and cytotoxicity. Careful assessment and evaluation of the SAR and other desirable drug‐like attributes of all synthesized molecules led to the identification of M029 (Figure 2a and Figure S2D, manuscript in preparation). […] To determine the selectivity of M029 for SHP1, we measured the IC50 value for M029‐mediated inhibition of a number of PTPs after a 60‐min preincubation. […] To assess potential direct interactions between SHP1 and M029, we utilized the thermal shift assay to measure the thermal stability of SHP1 in the presence of M029. […] To corroborate the covalent interaction between SHP1 and M029, a single SHP1‐M029 covalent adduct was observed by electrospray protein mass spectrometry when SHP1 was incubated with M029 (Figure 2e). […] This is in line with the expectation that SHP1 inactivation by M029 occurs through nucleophilic substitution of the chlorine from the chloroacetamide warhead.
(§2) To further confirm the time-dependent inhibition and determine the IC50 of acquired hits, repurchased compounds from Enamine were serially diluted in a 96-well plate, followed by the addition of proteins at 200 nM. After 10-minute and 60-minute preincubation, 2 µL of the mixture was transferred into 100 µM 6,8-Difluoro-4-Methylumbelliferyl Phosphate (DiFMUP, Invitrogen, cat# D6567) at a final volume of 200 µL. The reaction was allowed to proceed for 5 minutes and quenched by the addition of 40 µl of a 160 µM solution of bpV(Phen) (Sigma-Aldrich, cat# SML0889). The fluorescence signal was measured using a CLARIOstar Plus Microplate Spectrophotometer (BMG Labtech) using excitation and emission wavelengths of 340 nm and 450 nm, respectively. Data were fitted using Prism GraphPad 10.1.1.

VHR = VHR (Homo sapiens, UniProt P51452); test: PTP panel IC50, 60-min preincubation; format: biochemical
Sequence of VHR (P51452 whole entry, species assumed): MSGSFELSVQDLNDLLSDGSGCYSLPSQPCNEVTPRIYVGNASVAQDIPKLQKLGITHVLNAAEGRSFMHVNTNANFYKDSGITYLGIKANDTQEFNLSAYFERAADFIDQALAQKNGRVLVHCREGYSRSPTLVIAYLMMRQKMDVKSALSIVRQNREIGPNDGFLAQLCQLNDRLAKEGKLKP
Description: as §1, §2

MC38 tumors = test: CD8+ T cell / NK cell depletion in MC38 syngeneic model; format: in vivo, C57BL/6 mice
Description: To further establish whether the inhibitory effects of M029 on tumor progression could be attributable to enhanced antitumor immune responses, we treated MC38 tumors in nude mice. […] To evaluate the importance of CD8^+ T and NK cells in M029‐induced antitumor activity, we induced CD8^+ T cell or NK cell depletion in the MC38 syngeneic model using anti‐CD8 or anti‐NK1.1 antibodies as described in Figure 6c. […] These findings are consistent with the known role of SHP1 in T cells and with our in vitro data that indicate M029 enhances T cell activation with no direct effect on tumor cells. […] These findings align with previous reports that activated CD8^+ T cells recruit NK cells to tumors through releasing cytokines and chemokines like IFN‐γ.^[ [92] ^] The observed changes in immune activity induced by M029, such as increased tumor infiltration of cytotoxic CD8^+ T cells, enhanced T cell cytotoxicity and effector function, as well as improved NK cell infiltration and activation, collectively contribute to the anticancer effects exerted by M029 treatment.
Figure 6 Cytotoxic T‐cell activity is necessary for M029 antitumor activity. […] C57BL/6 mice were injected with anti‐CD8 or anti‐NK1.1 antibodies every 3–4 days for 8 days after tumor inoculation. Mice were orally dosed with M029 or control vehicle every day for 10 days after tumor inoculation at the same time (Control, n = 4; M029, n = 6; M029 + anti‐NK1.1, n = 6; M029 + anti‐CD8, n = 6). […] This difference implied that the CD8^+ T cells were critical to induce the NK cell infiltration in M029‐treated mice, and the depletion of CD8^+ T cells diminished M029's efficacy because of the absence of activated T cells and infiltrated NK cells. Statistical analyses were performed with Graphpad Prism software 10.4.2 through the student t test or the one‐way ANOVA test using Turkey post‐hoc comparison. *p < 0.05, **p < 0.01, ***p < 0.001, and ****p < 0.0001 were considered significant. Figures are plotted as average ± standard error of the mean (SEM).
Figure S6. Representative flow cytometry results of CD8^+ T/NK cell depletion studies. In the control group and the M029-treated group, CD8^+ T cells make up ~7% of immune cells and NK cells make up ~2% of immune cells. For mice treated with anti-NK1.1 antibody, the NK cell population is negligible (<0.1%). For mice treated with anti-CD8^+ antibody, the CD8^+ T cell population dropped to ~0.1%.
For immune cell profiling in the tumor microenvironment, tumor samples were first reduced to single-cell suspensions by compressing the tumors through a 70 µm filter (Falcon, #352350) into cold 1× PBS supplemented with 5 mM EDTA using the plunger of a syringe (HSW, #4010-200V0). Samples were strained through a second filter and then re-suspended in cold blocking buffer made of 5% BSA, 0.5 mM EDTA, and a 1:1000 dilution of CD16/32. Samples were then incubated with following fluorophore-conjugated antibodies. […]

Sequence of PEZ (Q15678 whole entry, species assumed): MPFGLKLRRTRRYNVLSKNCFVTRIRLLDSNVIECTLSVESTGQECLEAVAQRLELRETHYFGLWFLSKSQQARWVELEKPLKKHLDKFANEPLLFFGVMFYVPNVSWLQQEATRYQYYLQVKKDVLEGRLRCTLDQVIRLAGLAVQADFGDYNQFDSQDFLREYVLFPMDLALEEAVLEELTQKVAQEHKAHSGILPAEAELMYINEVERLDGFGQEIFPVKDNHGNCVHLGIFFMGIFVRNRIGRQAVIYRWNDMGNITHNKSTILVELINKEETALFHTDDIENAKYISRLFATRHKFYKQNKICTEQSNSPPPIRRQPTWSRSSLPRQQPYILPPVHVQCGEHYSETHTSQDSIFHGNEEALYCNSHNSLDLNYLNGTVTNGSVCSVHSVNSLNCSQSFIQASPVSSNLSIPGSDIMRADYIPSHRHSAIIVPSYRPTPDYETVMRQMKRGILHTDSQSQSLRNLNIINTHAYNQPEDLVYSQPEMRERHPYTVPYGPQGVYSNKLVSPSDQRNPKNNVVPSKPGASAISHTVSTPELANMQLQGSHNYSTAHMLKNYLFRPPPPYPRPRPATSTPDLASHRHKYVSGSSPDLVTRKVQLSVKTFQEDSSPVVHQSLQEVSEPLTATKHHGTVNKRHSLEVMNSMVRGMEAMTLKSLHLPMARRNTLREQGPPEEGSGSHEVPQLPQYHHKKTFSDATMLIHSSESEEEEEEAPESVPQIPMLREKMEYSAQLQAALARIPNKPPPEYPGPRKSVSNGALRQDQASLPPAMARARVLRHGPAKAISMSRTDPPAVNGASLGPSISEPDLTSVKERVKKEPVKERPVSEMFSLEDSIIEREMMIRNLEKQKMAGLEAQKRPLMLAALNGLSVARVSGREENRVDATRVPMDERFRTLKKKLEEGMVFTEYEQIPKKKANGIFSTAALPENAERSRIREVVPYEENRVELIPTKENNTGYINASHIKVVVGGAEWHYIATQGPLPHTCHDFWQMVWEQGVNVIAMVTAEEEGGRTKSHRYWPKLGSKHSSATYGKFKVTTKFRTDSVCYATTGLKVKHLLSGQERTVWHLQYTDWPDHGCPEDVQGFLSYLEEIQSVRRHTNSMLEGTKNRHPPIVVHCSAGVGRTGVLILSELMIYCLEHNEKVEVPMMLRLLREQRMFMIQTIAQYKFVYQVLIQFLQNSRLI

N#Cc1ccsc1NS(=O)(=O)c1ccc(NC(=O)CCl)cc1 [M029, 2-Chloro-N-(4-(N-(3-cyanothiophen-2-yl)sulfamoyl)phenyl)acetamide]
IC50 (PEZ): 172 ± 19.3 µM
IC50 (VHR): 180 ± 46.8 µM
M029-induced NK cell tumor infiltration after CD8+ T cell depletion (MC38 tumors; M029 + anti-CD8): abolishment of the increase in NK cell tumor infiltration
CD8+ T cell population of immune cells (MC38 tumors; flow cytometry, Figure S6): ~ 7%
NK cell population of immune cells (MC38 tumors; flow cytometry, Figure S6): ~ 2%
antitumor efficacy in CD8+ T-cell-depleted mice (MC38 tumors; oral M029 + anti-CD8): no antitumor efficacy; also recorded: completely abolished
antitumor effects in NK cell-depleted mice (MC38 tumors; oral M029 + anti-NK1.1): remained unaffected; also recorded: did not impact
